{"source": "patent US6911537B2", "about": "“Xenobiotic compound modulated expression systems and uses therefor” (The Salk Institute for Biological Studies, priority 1998, dated 2005)", "key": {"[1]": {"biological_target": "T1, SXR (Homo sapiens, UniProt O75469)", "T1 sequence (O75469 1-434)": "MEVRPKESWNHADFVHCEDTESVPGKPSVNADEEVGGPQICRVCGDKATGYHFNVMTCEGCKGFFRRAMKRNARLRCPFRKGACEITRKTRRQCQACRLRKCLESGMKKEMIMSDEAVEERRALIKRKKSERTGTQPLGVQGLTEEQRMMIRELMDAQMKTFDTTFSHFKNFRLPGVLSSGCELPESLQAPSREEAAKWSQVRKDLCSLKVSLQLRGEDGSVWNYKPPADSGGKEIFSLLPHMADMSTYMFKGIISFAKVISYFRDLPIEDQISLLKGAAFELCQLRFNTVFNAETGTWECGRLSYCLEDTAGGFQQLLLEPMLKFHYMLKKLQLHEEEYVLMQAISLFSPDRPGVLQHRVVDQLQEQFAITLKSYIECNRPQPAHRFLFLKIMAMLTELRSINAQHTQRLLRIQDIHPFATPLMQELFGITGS", "protocol": "(§1) The PCR-amplified sequences and target mutagenesis were confirmed by DNA sequencing.\n(§2) All compounds were purchased from Sigma.\n(§3) A panel of natural and synthetic steroid and nonsteroid compounds were tested for their ability to activate SXR and/or PXR in transfection-based assays using primary rat hepatocytes as recipient cells and the cellular promoters of the rat CYP3A23 gene or the human CYP3A4 gene as reporters."}, "[2]": {"biological_target": "T2, endogenous PXR (Rattus norvegicus, UniProt Q9R1A7)", "T2 sequence (Q9R1A7 1-431)": "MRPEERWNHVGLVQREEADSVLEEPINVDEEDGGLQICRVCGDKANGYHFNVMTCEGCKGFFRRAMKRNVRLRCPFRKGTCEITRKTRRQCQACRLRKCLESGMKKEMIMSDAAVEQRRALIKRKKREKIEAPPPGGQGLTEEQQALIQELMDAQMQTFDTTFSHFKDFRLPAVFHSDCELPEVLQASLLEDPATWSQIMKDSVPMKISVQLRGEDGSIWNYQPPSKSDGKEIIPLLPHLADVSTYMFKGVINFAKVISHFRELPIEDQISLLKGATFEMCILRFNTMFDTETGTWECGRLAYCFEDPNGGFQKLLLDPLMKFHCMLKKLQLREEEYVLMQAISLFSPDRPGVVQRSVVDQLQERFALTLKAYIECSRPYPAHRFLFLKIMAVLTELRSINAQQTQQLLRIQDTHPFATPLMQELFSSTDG", "details": "hepatocytes", "protocol": "as §1, §2, §3"}, "[3]": {"biological_target": "T3, mouse PXR (Mus musculus, UniProt O54915)", "T3 sequence (O54915 1-431)": "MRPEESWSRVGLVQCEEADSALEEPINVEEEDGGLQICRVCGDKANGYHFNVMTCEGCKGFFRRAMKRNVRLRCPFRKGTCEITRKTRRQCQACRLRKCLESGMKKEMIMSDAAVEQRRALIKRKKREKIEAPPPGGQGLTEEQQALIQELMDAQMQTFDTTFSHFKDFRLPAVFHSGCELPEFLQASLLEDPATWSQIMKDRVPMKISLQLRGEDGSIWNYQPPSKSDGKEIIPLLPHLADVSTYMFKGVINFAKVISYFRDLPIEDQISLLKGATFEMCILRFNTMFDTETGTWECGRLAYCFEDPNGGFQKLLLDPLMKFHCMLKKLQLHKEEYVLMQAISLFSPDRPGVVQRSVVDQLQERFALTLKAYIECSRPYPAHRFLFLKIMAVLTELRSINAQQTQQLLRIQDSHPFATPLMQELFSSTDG", "test": "Transfection-based reporter assay in CV-1 cells, mouse PXR", "details": "50 μM, tamoxifen 5 μM (FIG. 7B)", "description": "FIGS. 7A-C are bar graphs illustrating the ability of a panel of compounds to activate a representative of three members of the nuclear receptor superfamily, human SXR (FIG. 7A); mouse PXR (FIG. 7B); and human estrogen receptor alpha (hERα; FIG. 7C)."}, "[4]": {"test_system": "CYP3A11 gene", "details": "single dose 24 h before sacrifice", "protocol": "The animals were allowed free access to food and water at all times. […] When necessary, mice were treated with a single intraperitoneal injection of DEX (50 mg/kg), PCN (40 mg/kg), or CTZ (50 mg/kg).\nTo detect specific transcripts, [^32P]-cDNA probes labeled by Random Primer Labeling Kit (Boringher) were hybridized to the membranes. The probe used to detect transgene contains both the SXR cDNA and the SV40 sequences. […] The filters were subsequently stripped and rehybridized with a murine glyceraldehyde-3-phosphate dehydrogenase (GAPDH) cDNA probe for RNA loading normalization.\nTissues were harvested 24 h later and subjected to Northern blot analysis."}, "[5]": {"biological_target": "T4, SXR (Homo sapiens, UniProt O75469)", "T4 sequence (O75469 1-434)": "T1 sequence (O75469 1-434)", "T4 sequence (P19793 1-462 partner)": "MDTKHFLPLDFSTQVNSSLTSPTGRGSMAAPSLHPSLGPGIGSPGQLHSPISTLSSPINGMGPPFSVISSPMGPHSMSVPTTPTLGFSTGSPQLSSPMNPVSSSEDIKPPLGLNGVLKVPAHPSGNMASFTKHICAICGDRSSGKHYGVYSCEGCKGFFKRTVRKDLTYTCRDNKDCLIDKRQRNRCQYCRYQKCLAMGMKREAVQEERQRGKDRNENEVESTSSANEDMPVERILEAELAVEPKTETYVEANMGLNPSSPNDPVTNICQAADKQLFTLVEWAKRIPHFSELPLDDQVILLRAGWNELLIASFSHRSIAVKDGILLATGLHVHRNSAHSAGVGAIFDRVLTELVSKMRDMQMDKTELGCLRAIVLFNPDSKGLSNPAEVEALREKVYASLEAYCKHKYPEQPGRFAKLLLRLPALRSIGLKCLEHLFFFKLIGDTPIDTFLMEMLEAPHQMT", "remark": "listed apart in the source", "excerpt": "(§4) Thus, the protein coding region of SXR was PCR amplified and subcloned into NcoI and BamH1 sites of the vector pCDG1 (see Blumberg et al., supra). During this process the putative initiator Leu was converted to Met with a Kozak consensus sequence CCATGG."}, "[6]": {"biological_target": "T2, endogenous PXR", "test": "Human CYP3A4 cellular promoter reporter in primary rat hepatocytes, endogenous receptor", "details": "rodent cellular environment (FIG. 8B)", "description": "as §1, §2"}, "[7]": {"biological_target": "T4, SXR", "test": "Transfection-based reporter assay in CV-1 cells, GAL4-SXR or full-length SXR", "set-up": "Activation of SXR response elements (DR-3, DR-4, DR-5) by full-length SXR: dose or concentration left out as unconfirmed", "details": "for Activation of SXR in transfection-based assays: GAL4-SXR LBD chimera or full-length SXR, CV-1 cells, steroids at high doses, up to 50 mM [sic]; for Activation of SXR response elements (DR-3, DR-4, DR-5) by full-length SXR: cotransfection, panel of steroids as printed (FIG. 4)", "excerpt": "as §4"}, "[8]": {"details": "clinical trials, of 2510 patients; cited from earlier work"}}, "note": "Where two headings read alike, the source gives them in different places.", "data": [{"compound": "CC(=O)[C@H]1[C@H](C#N)C[C@H]2[C@@H]3CC=C4C[C@@H](O)CC[C@]4(C)[C@H]3CC[C@@]21C", "note": "[PCN, pregnenolone-16-carbonitrile]", "values": [{"measurement": "Activation of CYP3A23 promoter reporter with mutated DR-3 element (DR3/M1, DR3/M2)", "setting": "[1]", "result": "abolished"}, {"measurement": "Inducibility of CYP3A23 promoter reporter with DR-3 replaced by IR-6 element (DR3/IR6)", "setting": "[1]", "result": "rescueS the inducibility"}, {"measurement": "Induction of CYP3A23 promoter reporter with co-transfection of SXR", "setting": "[1]", "result": "remained unchanged"}, {"measurement": "Activation of CYP3A23 promoter reporter in the absence of SXR", "setting": "[2]", "result": "most potent and efficacious tested activators"}, {"measurement": "Activation of mouse PXR", "setting": "[3]", "result": "preferentially activated"}, {"measurement": "Induction of liver CYP3A11 expression in Alb-SXR transgenic mice", "setting": "[4]; RIF 5 mg/kg, BRL 20 mg/kg, troglitazone and ciglitazone 150 mg/kg by gavage, CTZ 50 mg/kg, PCN 40 mg/kg i.p.", "result": "equally efficacious CYP3A11 inducer"}, {"measurement": "Induction of liver CYP3A11 expression in wild type / nontransgenic mice", "setting": "[4]; same doses as in transgenic mice", "result": "equally efficacious CYP3A11 inducer"}, {"measurement": "Activation of human SXR by compounds known to induce CYP3A4", "setting": "[5]", "result": "weak activator"}, {"measurement": "Activation of human CYP3A4 promoter reporter via endogenous PXR", "setting": "[6]", "result": "can be activated"}, {"measurement": "Activation of SXR in transfection-based assays", "setting": "[7]", "result": "activated"}, {"measurement": "Activation of SXR response elements (DR-3, DR-4, DR-5) by full-length SXR", "setting": "[7]", "result": "among the best activators"}]}, {"compound": "C[C@]12CC[C@@H]3c4ccc(O)cc4CC[C@H]3[C@@H]1CC[C@@H]2O", "note": "[estradiol, 17β-estradiol]", "values": [{"measurement": "Induction of CYP3A23 promoter reporter with co-transfection of SXR", "setting": "[1]", "result": "significant induction"}, {"measurement": "Activation of mouse PXR", "setting": "[3]", "result": "similarly activated"}, {"measurement": "Activation of human SXR by compounds known to induce CYP3A4", "setting": "[7]; 50 μM, tamoxifen 5 μM (FIG. 7A)", "result": "most potent activators"}, {"measurement": "Activation of SXR in transfection-based assays", "setting": "[7]", "result": "remarkably effective activators"}, {"measurement": "Activation of SXR response elements (DR-3, DR-4, DR-5) by full-length SXR", "setting": "[7]", "result": "among the best activators"}]}, {"compound": "C[C@]12CC[C@H]3[C@@H](CCC4=CC(=O)CC[C@@]43C)[C@@H]1CC[C@@H]2O", "note": "[testosterone]", "values": [{"measurement": "Activation of mouse PXR", "setting": "[3]", "result": "similarly activated"}, {"measurement": "Activation of SXR in transfection-based assays", "setting": "[5]", "result": "activated"}]}, {"compound": "Cc1c(C)c2c(c(C)c1O)CCC(C)(COc1ccc(CC3SC(=O)NC3=O)cc1)O2", "note": "(stereo not shown) [troglitazone]", "values": [{"measurement": "Incidence of hepatotoxicity (alanine aminotransferase level > three times the upper limit of normal)", "setting": "[8]", "result": 1.9, "unit": "%"}]}]}
